pIC50: −log10 of the molar value. “Also recorded” adds a separate entry of the source. Bridge positions count the residues as written; N and C are the ends. Ends that are not written are not given here. Peptide text beside a SMILES is read from it.
Tests used:
zebrafish embryos = assay: Zebrafish embryo toxicity; settings: for toxicity in zebrafish embryos: embryos exposed from 24 hpf for 24 h, 60 embryos per group, two experiments, NRC-03 3 μM, abamectin 3.125 μM
Procedure: For in vivo studies, wild-type zebrafish embryos (Danio rerio) were dechorionated at 24 h post fertilization (hpf) using digestion with 1 mg/mL Pronase (Sigma) in E3 medium ([…]). In a 96-well plate, 3 embryos per well were exposed for 24 h to 100 μL of E3 containing VIRIP peptides at the concentrations indicated in the figures. Two independent assays were performed, each with 10 × 3 embryos. The peptide solvent (DMSO), diluted in E3, was used as negative control at the same amount as introduced by the peptide stock. […] Abamectin at a concentration of 3.125 μM was used as positive control for neurotoxicity.[49] At 48 hpf (after 24 h of incubation) embryos were scored in a stereomicroscope for signs of cytotoxicity (lysis and/or necrosis), developmental toxicity (delay and/or malformations) or cardiotoxicity (heart edema and/or reduced or absent circulation). Each embryo was also touched with a needle and reduced or absent touch response (escape movements) was evaluated as signs of neurotoxicity if and only if no signs of acute toxicity were present in the same embryo. Embryos were categorized within each of these toxicity categories into several classes of severity.[35]

[1] = system: HIV-1 CH042 (clade C transmitted-founder); settings: TZM-bl cells, clade C CH042 TF HIV-1
Procedure: (§1) Figure 3 Size optimization of VIR-148. (A) TZM-bl reporter cells were incubated with increasing concentrations of VIR-148, VIR-102, or the indicated internally truncated itVIRIP derivatives. Cells were subsequently infected with HIV-1 NL4-3, and beta-galactosidase activity was determined 3 days after infection. (B) Hemolytic effect of indicated compounds on human erythrocytes. Each tile represents the area under the curve (AUC) for hemolytic activity. Full hemolysis is represented by a Triton-X control. (C) Amino acid alignment of the FP regions (red) of HIV-1 CH042, CH077, SIVmac239 and HIV-2 ROD10. (D) TZM-bl cells were incubated with increasing concentrations of VIR-148 or soVIRIP and subsequently infected with the HIV-1 CH042 or CH077, SIVmac239 or HIV-2 ROD10. […] The contribution of each amino acid to the binding interaction is indicated by color saturation. (F) Time-resolved ReaxFF-based molecular dynamics simulation of the interaction between soVIRIP and the HIV-1 FP. The trajectories are shown for VIR-148 (blue) and soVIRIP (orange). (G) Correlation between the free energy contribution of each amino acid of soVIRIP with the corresponding amino acid in VIR-148, based on ReaxFF simulations.
(§2) To determine infectious virus yield, 10,000 TZM-bl reporter cells/well were seeded in 96-well plates and infected with cell culture supernatants, under reduced 1% FCS conditions, in triplicates on the following day. Three days p.i., cells were lysed and β-galactosidase reporter gene expression was determined using the GalScreen Kit (Applied Bioscience) according to the manufacturer’s instructions with an Orion microplate luminometer (Berthold).
(§3) 10,000 TZM-bl reporter cells were seeded in 96-well plates in 100 μL of supplemented DMEM. The following day, the medium was changed to reduced 1% FCS-supplemented DMEM, and serially diluted peptide was added to the cells. The cells were subsequently infected with 10 μL of infectivity-normalized virus stocks. At 3 days postinfection, the supernatant was removed, and β-galactosidase activity was measured as previously described.

[2] = system: HIV-1 CH077 (clade B transmitted-founder); settings: TZM-bl cells, clade B CH077 TF HIV-1
Procedure: as §1, §2, §3

HIV-2 ROD10 = assay: TZM-bl infection inhibition, HIV-2 ROD10; type: cell-based; settings: TZM-bl cells
Procedure: (§4) Figure 3 Size optimization of VIR-148. (A) TZM-bl reporter cells were incubated with increasing concentrations of VIR-148, VIR-102, or the indicated internally truncated itVIRIP derivatives. Cells were subsequently infected with HIV-1 NL4-3, and beta-galactosidase activity was determined 3 days after infection. (B) Hemolytic effect of indicated compounds on human erythrocytes. Each tile represents the area under the curve (AUC) for hemolytic activity. Full hemolysis is represented by a Triton-X control. (C) Amino acid alignment of the FP regions (red) of HIV-1 CH042, CH077, SIVmac239 and HIV-2 ROD10. […]
as §2
(§5) 10,000 TZM-bl reporter cells were seeded in 96-well plates in 100 μL of supplemented DMEM. […] At 3 days postinfection, the supernatant was removed, and β-galactosidase activity was measured as previously described.

HIV-1 NL4-3 = system: HIV-1 NL4-3
Text: To further define critical residues and to assess whether the loop structure is required for antiviral activity, we generated short peptides of six, seven or ten amino acids corresponding to the C- or N-termini of VIR-148, respectively. To determine their antiviral activity, we pretreated TZM-bl reporter cells with various concentrations of individual or mixed peptides and subsequently exposed them to the CXCR4-tropic HIV-1 NL4–3 strain. TZM-bl reporter cells are highly susceptible to HIV-1 infection and contain the β-galactosidase reporter gene under the control of the HIV-1 long terminal repeat.[34] Three days later, infection was quantified by β-galactosidase assay.
as §2, §3

SIVmac239 = assay: TZM-bl infection inhibition, SIVmac239; type: cell-based, SIVmac; settings: TZM-bl cells
Procedure: as §4, §2, §5

Molecule: abamectin [reference compound]
- toxicity in zebrafish embryos (zebrafish embryos): exhibited the expected toxicities

Molecule: CC[C@H](C)[C@H](NC(=O)[C@H](C)NC(=O)[C@H](CCC(=O)O)NC(=O)[C@@H](N)CC(C)C)C(=O)N1CCC[C@H]1C(=O)N[C@H]1CSSC[C@@H](C(=O)N[C@H](C(=O)N[C@@H](C)C(=O)N[C@@H](Cc2ccccc2)C(=O)N[C@@H](CC(N)=O)C(=O)N[C@@H](CCCCN)C(=O)N2CCC[C@H]2C(=O)N[C@@H](Cc2ccccc2)C(=O)N[C@H](C(=O)N[C@@H](Cc2ccccc2)C(=O)O)C(C)C)C(C)C)NC(=O)[C@@H]2CCCN2C(=O)[C@@H]2CCCN2C(=O)[C@H]([C@@H](C)CC)NC(=O)[C@H](CO)NC1=O [VIR-148, reference compound] (H-LEAIPCSIPPCVAFNKPFVF-OH; disulfide 6-11)
- pIC50 [1]: 7.43
- pIC50 [2]: 7.41

Molecule: LEAIPVAFVF [soVIRIP]
- pIC50 [1]: 7.43
- pIC50 [2]: 7.41
- activity against HIV-2 ROD10 (HIV-2 ROD10): inactive
- pIC50 (HIV-1 NL4-3; NL4-3): 6.92
- antiviral activity (in words) (HIV-1 NL4-3; TZM-bl reporter cells, HIV-1 NL4-3, β-galactosidase 3 days postinfection): maintained full antiviral activity
- higher antiviral activity compared to the original VIRIP (HIV-1 NL4-3; ratio of IC50 values): more than 100 fold
- activity against SIVmac239 (SIVmac239): inactive
- toxicity in zebrafish embryos (zebrafish embryos): did not display significant toxic effects; also recorded: nontoxic
- nontoxic concentration relative to IC50 against primary HIV-1 strains (zebrafish embryos; zebrafish embryos): about 2,500 fold

Molecule: GRRKRKWLRRIGKGVKIIGG AALDHL-NH2 [NRC-03, reference compound]
- toxicity in zebrafish embryos (zebrafish embryos): exhibited the expected toxicities
